From US20230183774A1, “COLORIMETRIC ASSAY FOR HIGH THROUGHPUT, FACILE AND RAPID ANTIMICROBIAL SUSCEPTIBILITIES TESTING” (Georgia Tech Research Corporation, priority 2021, published 2023) come the findings set out here.

What all share (assay type): cell-based
Experiment [1] concerns E. coli sample (positive blood culture). The experiment is described as follows: ChroMIC automated colorimetric MIC assay directly from positive blood culture. As to conditions: for MIC: Escherichia coli. How it is done:
In order to prepare the contrast agent, sterile human whole blood (ZenBio, Research Triangle Park, N.C.) was stored at 4° C. and used within two weeks. […] For use as contrast, whole blood was diluted in sterile cation-adjusted Mueller Hinton broth (CAMHB; BD Biosciences, San Jose, Calif.) media (10% v/v).
Relating to an example colorimetric AST directly from positive blood culture —BacT/ALERT FA PLUS positive blood cultures were 500-fold diluted in CAMHB media and dispensed in the 96-well plate antibiotic panels. […] Final antibiotic concentrations ranged from approximately 0.03125 μg/mL to approximately 64 μg/mL along each row, with final dilution of blood cultures being 1000-fold. […] Wells H1, H9, and H10 are media-only negative controls, while wells H11 and H12 are no-antibiotic positive controls. […] ChroMIC ASTs were performed and compared (blinded) against both Vitek-2-determined MICs and vs. BMD. Each blood culture was also plated to retroactively determine inoculum size used.
Negative control wells with antibiotics and media only were allocated to ensure the sterility of media and antibiotics. Positive control wells were prepared to track bacterial growth without antibiotics and these controls were used in developing real-time automated analysis. After preparation of assays, the 96-well plates were covered with sterile sealing film (VWR International, Radnor, Pa.) and incubated at 37° C. for 18 hours with imaging as described below.
Example instruments used with the example colorimetric AST are disclosed herein. Four computer-controlled cameras (Raspberry Pi HQ) were connected to an ArduCam multicamera board in a Raspberry Pi 4B computer running the latest version of Raspian operating system. Within an incubator held at approximately 37° C., 96-well microtiter plates were held in 3D-printed holders, approximately 10 cm above the camera. A low distortion wide-angle lens was used to image microtiter plates from below, with LED illumination from above. Software collected images once every 15 minutes from each active camera over an 18-hour period. Images were analyzed both visually and by computer for red, green, and blue channel pixel intensities. Automated well detection was performed with OpenCV in python based on color value and the two most significant principal color components within each well were calculated and used to determine positive versus negative bacterial growth. […] SVM-derived probabilities were used to determine growth or no growth in each well. The left—most well in each row maintaining bright red color (no growth) was taken as the MIC.
ChroMIC assays were automated to acquire one image every 15 minutes over 18 hours. […] Wells can be automatically detected based on their color and the mean RGB color values can be taken from the average color of a 40×40 pixel area around each well centroid. Principal components using RGB values as input dimensions can be calculated for the wells in each image. […] Wells H1-H10 on each image and all wells (A1-H12) from the first hour (5 images—all before growth occurs) can be used as negative control wells. […] Since PCs are calculated for each image, all positive and negative controls are rotated into the current image PC space. A grid search can be performed to find the optimal SVM discriminant (FIG. 20B), and probabilities are used to assign growth (+) or no growth (−) for each well.
FIGS. 20-23 show aspects of automated real-time ChroMIC assay of an E. coli sample. An example of acquired images at different times (0 hours, 4 hours, 6 hours, 8 hours, 10 hours, 12 hours and 18 h) is shown in FIG. 19. […] This enables labels and MIC determinations for each antibiotic at each time point.

The test system of experiment [2] is E. coli strain Mu890. The experiment is described as follows: Standard broth microdilution (BMD), turbidity. As to conditions: validation of near IR experiment, 6×10^6 CFU/mL per well. Here is the method:
This color change results from the growth and presence of viable bacteria. When bacteria are resistant to the given antibiotic concentration, the color change is clearly observed. […] Results were validated by comparing with the gold standard BMD (FIGS. 4A and 4B). The gold standard BDM requires 16 to 24 hours incubation of plates after isolation of pure bacteria from positive blood cultures. In this case, the BMD was done by subculturing a pure colony of Mu890 in 4 mL CAMHB for 3 hours, followed by OD-600 adjustment such that the final concentration of bacteria is 6×10^6 CFU/mL per well. The plate was incubated at 37° C. for 18 hours and the image was acquired (FIG. 4B).
A general note: Broth dilution looks for growth in wells or tubes with falling amounts of substance.

Experiment [3] deals with E. coli strain Mu890. In words: Rapid colorimetric AST in spiked human whole blood / blood culture medium (colour change, near IR absorbance). As to conditions: 37° C.; for Susceptibility of Mu890 (colorimetric assay / near IR absorption): CLSI susceptible and resistant breakpoints, 2.55 × 10^4 CFU/mL in wells, 24 hours; for Susceptibility of Mu890 (colour change of blood): rapid colorimetric AST, CLSI breakpoint concentrations, 96-well plate, up to 24 hours incubation. An excerpt: (§1) The antibiotics concentration and the initial concentration of bacterial cells in the wells shown in FIG. 8A are tabulated in Table 3.

The test system of experiment [4] is P. aeruginosa strain PA46. In words: Standard broth microdilution (BMD). As to conditions: 6×10^6 CFU/mL per well. How it is done:
as §1
The bacterial density in the standard BMD method was 6×10^6 CFU/mL per well before incubation, while the bacterial density in the colorimetric assay before the incubation is given in Table 3.

The mark [5] stands for this setting: real-time Bayesian updated MIC, 4 hour, read-out: MIC (4 hour).
Setting [6] is: real-time Bayesian updated MIC, 6 hour, read-out: MIC (6 hour).
Where [7] appears, read: real-time Bayesian updated MIC, 8 hour, read-out: MIC (8 hour).
Where [8] appears, read: real-time Bayesian updated MIC, 10 hour, read-out: MIC (10 hour).
Setting [9] is: real-time Bayesian updated MIC, 12 hour, read-out: MIC (12 hour).
Where [10] appears, read: real-time Bayesian updated MIC, 16 hour, read-out: MIC (16 hour).

As a reminder, the MIC is the lowest concentration found to suppress growth.

≈ marks a conversion by molar mass, not a printed value. Read-outs that look alike come from different tables or passages of the source.

`NCC[C@H](O)C(=O)N[C@@H]1C[C@H](N)[C@@H](O[C@H]2O[C@H](CN)[C@@H](O)[C@H](O)[C@H]2O)[C@H](O)[C@H]1O[C@H]1O[C@H](CO)[C@@H](O)[C@H](N)[C@H]1O` [Amikacin, amikacin]: the MIC turned out to be 1 µg/mL (≈ 1.71 µM) in experiment [1] (setting [5]); 1 µg/mL (≈ 1.71 µM) in experiment [1] (setting [6]); 1 µg/mL (≈ 1.71 µM) in experiment [1] (setting [7]); 2 µg/mL (≈ 3.42 µM) in experiment [1] (setting [8]); 2 µg/mL (≈ 3.42 µM) in experiment [1] (setting [9]); 2 µg/mL (≈ 3.42 µM) in experiment [1] (setting [10]).
Turning to `CO/N=C(\C(=O)N[C@@H]1C(=O)N2C(C(=O)[O-])=C(C[N+]3(C)CCCC3)CS[C@H]12)c1csc(N)n1` [Cefepime, cefepime], the MIC in experiment [1] (4 h, read-out: MIC (4 hour)) was at most 0.0312 µg/mL; in experiment [1] (6 h, read-out: MIC (6 hour)), at most 0.0312 µg/mL; in experiment [1] (8 h, read-out: MIC (8 hour)) it was at most 0.0312 µg/mL; in experiment [1] (10 h, read-out: MIC (10 hour)), at most 0.0312 µg/mL; in experiment [1] (12 h, read-out: MIC (12 hour)) it was at most 0.0312 µg/mL; in experiment [1] (16 h, read-out: MIC (16 hour)), at most 0.0312 µg/mL.
For `CC(C)(O/N=C(\C(=O)N[C@@H]1C(=O)N2C(C(=O)[O-])=C(C[n+]3ccccc3)CS[C@H]12)c1csc(N)n1)C(=O)O` [Ceftazidime, ceftazidime], the “Susceptibility of Mu890 (standard BMD method)” value with E. coli strain Mu890 [2] is reported as “susceptible”. Besides, the “Susceptibility of Mu890 (colorimetric assay / near IR absorption)” value in the experiment on E. coli strain Mu890 [3] was “susceptible”. In addition, in the experiment with E. coli strain Mu890 [3], the “Susceptibility of Mu890 (colour change of blood)” value is “sensitive”. Moreover, the MIC in experiment [1] (setting [5]) worked out at 0.25 µg/mL (≈ 0.457 µM); in experiment [1] (setting [6]), 0.25 µg/mL (≈ 0.457 µM); in experiment [1] (setting [7]) it was 0.125 µg/mL (≈ 0.229 µM); in experiment [1] (setting [8]) it was 0.125 µg/mL (≈ 0.229 µM); in experiment [1] (setting [9]) it was 0.125 µg/mL (≈ 0.229 µM); in experiment [1] (setting [10]), 0.125 µg/mL (≈ 0.229 µM).
Turning to `C[C@H]1COc2c(N3CCN(C)CC3)c(F)cc3c(=O)c(C(=O)O)cn1c23` [Levofloxacin, levofloxacin], the MIC in experiment [1] (setting [5]), in experiment [1] (setting [6]), in experiment [1] (setting [7]), in experiment [1] (setting [8]), in experiment [1] (setting [9]) and in experiment [1] (setting [10]) was at most 0.0312 µg/mL in each case.
Consider `C[C@@H](O)[C@H]1C(=O)N2C(C(=O)O)=C(S[C@@H]3CN[C@H](C(=O)N(C)C)C3)[C@H](C)[C@H]12` [Meropenem, meropenem], for which the “Susceptibility of Mu890 (standard BMD method)” value in the experiment with E. coli strain Mu890 [2] is recorded as “susceptible”. The “Susceptibility of Mu890 (colorimetric assay / near IR absorption)” value with E. coli strain Mu890 [3] is given as “susceptible”. Also, the MIC in experiment [1] (setting [5]) is 0.0625 µg/mL (≈ 0.163 µM); in experiment [1] (setting [6]), at most 0.0312 µg/mL; in experiment [1] (setting [7]) it was at most 0.0312 µg/mL; in experiment [1] (setting [8]), at most 0.0312 µg/mL; in experiment [1] (setting [9]), at most 0.0312 µg/mL; in experiment [1] (setting [10]) it was at most 0.0312 µg/mL.
Consider `NC[C@H]1O[C@H](O[C@H]2[C@H](O)[C@@H](O[C@H]3O[C@H](CO)[C@@H](O)[C@H](N)[C@H]3O)[C@H](N)C[C@@H]2N)[C@H](N)C[C@@H]1O` [Tobramycin, tobramycin], for which the “Susceptibility of Mu890 (standard BMD method)” value with E. coli strain Mu890 [2] is on record as “susceptible”. In addition, in the experiment with E. coli strain Mu890 [3], the “Susceptibility of Mu890 (colorimetric assay / near IR absorption)” value was “susceptible”. For the same compound, the “Susceptibility of Mu890 (colour change of blood)” value in the experiment on E. coli strain Mu890 [3] is on record as “sensitive”. The MIC amounted to 0.5 µg/mL (≈ 1.07 µM) in experiment [1] (setting [5]); 0.5 µg/mL (≈ 1.07 µM) in experiment [1] (setting [6]); 0.5 µg/mL (≈ 1.07 µM) in experiment [1] (setting [7]); 0.5 µg/mL (≈ 1.07 µM) in experiment [1] (setting [8]); 1 µg/mL (≈ 2.14 µM) in experiment [1] (setting [9]); 1 µg/mL (≈ 2.14 µM) in experiment [1] (setting [10]).
Regarding `Cc1nnc(SCC2=C(C(=O)O)N3C(=O)[C@@H](NC(=O)Cn4cnnn4)[C@H]3SC2)s1` [cefazolin], the “Susceptibility of PA46 (standard BMD method)” value in experiment [4] is given as “resistant”.
With gentamicin, in experiment [1] (real-time Bayesian updated MIC, 4 hour), the “MIC (4 hour)” value came to 0.5 µg/mL. The “MIC (6 hour)” value in experiment [1] (real-time Bayesian updated MIC, 6 hour) worked out at 0.5 µg/mL. Besides, the “MIC (8 hour)” value in experiment [1] (real-time Bayesian updated MIC, 8 hour) turned out to be 0.5 µg/mL. Also, the “MIC (10 hour)” value in experiment [1] (real-time Bayesian updated MIC, 10 hour) turned out to be 1 µg/mL. For the same compound, the “MIC (12 hour)” value in experiment [1] (real-time Bayesian updated MIC, 12 hour) is 1 µg/mL. In addition, the “MIC (16 hour)” value in experiment [1] (real-time Bayesian updated MIC, 16 hour) turned out to be 1 µg/mL.
